In BindingDB's records for doi:10.7270/Q2CV4KX9 (n/a, 1995) one finds Ki data, which are given here for 5 molecules.

SMILES strings stand for the structures.

This assay can be described thus: Binding affinity was measured by its ability to displace [3H]CCK-8S from CCK-B receptor in guinea pig brain.
One may read the Ki as a dissociation constant, usually derived from enzyme kinetics or from competition with a known ligand. On to `CC(C)CCN1C(=O)C(NC(=O)Nc2ccccc2)C(=O)N(c2ccccc2)c2ccc(Cl)cc21` (stereo not given), for which the Ki was determined as 0.955 µM. Turning to `CC(C)CCN1C(=O)C(NC(=O)Nc2ccccc2)C(=O)N(c2ccccc2)c2cc(F)ccc21` (stereo not given), the affinity corresponds to a Ki of 0.224 µM. As for `CC(C)CCN1C(=O)C(NC(=O)Nc2ccccc2)C(=O)N(c2ccccc2)c2cc(Cl)c(Cl)cc21` (stereo not given), the affinity corresponds to a Ki of 1.58 µM. As for `CC(C)CCN1C(=O)C(NC(=O)Nc2ccccc2)C(=O)N(c2ccccc2)c2ccc(F)cc21` (stereo not given), the Ki was less than 1 µM.

Turning to `CC(C)CCN1C(=O)C(NC(=O)Nc2ccccc2)C(=O)N(c2ccccc2)c2cc(Cl)ccc21` (stereo not given), the Ki was 0.955 µM.
